In PMC6776155 (Breeding Science, 2019):

Test system: TrGDH (His6-TF-TrGDH)
Assay: NADPH oxidation at […] nm, Lineweaver-Burk
Format: biochemical, Trichurus sp.
Conditions: amination; 2-OG 1-10 mM, 100 μM NADPH, NH4Cl co-substrate, Tris pH 8.0, 25 °C

SMILES: O=C(O)CCC(=O)C(=O)O [2-oxoglutarate]
- Km: 1570 ± 190 µM
